# Source: US11844845B2, “Cell penetrating peptide, conjugate comprising same, and composition comprising conjugate” (GEMVAX & KAEL CO., LTD., priority 2012, dated 2023)
# Tested on: HeLa cell
# Test: Cell penetration of pep(CPP)-FITC conjugate in HeLa cell line, flow cytometry (FACS)
# Format: cell-based, Homo sapiens
# Details: HeLa cells, 20 uM FITC-fused peptide, 37° C. for an hour, control = FITC only
# Method: Homo sapiens cervix adenocarcinoma cell line as HeLa cell lines were purchased from ATCC (American Type Cell Culture). The cells were cultured in MEM supplemented with 10% fetal bovine serum (Invitrogen, USA), Earle's salts, non-essential amino acids, sodium pyruvate and 100 μg/ml penicillin and 10 units/ml streptomycin and cultured at 37° C., 5% CO2 incubator.
# Flow cytometry and Confocal microscope analysis were performed to compare the between degree of cellular uptake of the cells were treated with SEQ ID NO: 2 to SEQ ID NO: 178, pep (CPP) and control.
# The cell line was divided in a 6-well plate and cultured in a medium containing 10% fetal bovine serum (Invitrogen, USA), 100 μg/ml penicillin, 100 units/ml streptomycin at 37° C. 5% CO2 incubator for 12 hours. After washing the cell line with PBS, starvation was induced in a Minimum Essential Medium for an hour. 20 uM of each carrier peptide was treated and cultured at 37° C. for an hour. After repeating the step of washing the cells with PBS for three times, Trypsin-EDTA was treated form 10 mins at 37° C. to separate the carrier peptide on the outside of the cell. cells were collected with refrigerated PBS and centrifugation was performed to repeat the step of washing the cells for three times. After then, the cells were suspended in 0.5 ml of PBS containing 4% Paraformaldehyde and fluorescence of the cells was analyzed using FACS Calibur (Becton Dickinson). The cellular uptake aspect of control and various peptides combined with FITC was compared and analyzed by MFI (Mean Fluorescence Intensity).
# Analysis results shown in FIGS. 2 to 29 are given in detail in Table 7 below.
row,Substance,"cellular uptake, MFI (Mean Fluorescence Intensity)"
1,RPALL (listed as Homo sapiens) [Pep-RIA-127],12.15 ± 0.89
2,LTSR (listed as Homo sapiens) [Pep-RIA-109],9.37 ± 0.31
3,ARPALLT (listed as Homo sapiens) [Pep-RIA-116],11.32 ± 0.99
4,HREARPALLTSRLRFIPKPDG (listed as Homo sapiens) [Pep-RIA-22],14.42 ± 0.28
5,LLT (listed as Homo sapiens) [Pep-RIA-152],12.58 ± 0.47
6,RPA (listed as Homo sapiens) [Pep-RIA-129],11.18 ± 0.97
7,EVRQHREARPALLTSRLRFIPKPDGLRPI (listed as Homo sapiens) [Pep-RIA-58],17.96 ± 0.97
8,LTSRLRFI (listed as Homo sapiens) [Pep-RIA-154],12.21 ± 1.29
9,EARPALLTSRLRFIPKPDGLRPIVNMDYV (listed as Homo sapiens) [Pep-RIA-76],22.07 ± 0.64
10,ARPAL (listed as Homo sapiens) [Pep-RIA-118],11.41 ± 1.03
11,REARPALLTSRLRFIPKPDGL (listed as Homo sapiens) [Pep-RIA-30],15.34 ± 0.55
12,VRQHREARPALLTSRLRFIPK (listed as Homo sapiens) [Pep-RIA-5],20.24 ± 0.34
13,RLRFIPK (listed as Homo sapiens) [Pep-RIA-99],17.45 ± 0.19
14,RPALLTSRLR (listed as Homo sapiens) [Pep-RIA-123],17.31 ± 0.68
15,QHREARPALLTSRLRFIPKPDGL (listed as Homo sapiens) [Pep-RIA-28],14.8 ± 0.32
16,RPALLT (listed as Homo sapiens) [Pep-RIA-126],11.51 ± 1.84
17,ARP (listed as Homo sapiens) [Pep-RIA-120],10.04 ± 0.53
18,ALLTSRLRFIPK (listed as Homo sapiens) [Pep-RIA-94],21.07 ± 1.56
19,ALLTS (listed as Homo sapiens) [Pep-RIA-143],13.24 ± 0.37
20,RQHREARPALLTSRLRFIPKP (listed as Homo sapiens) [Pep-RIA-24],19.42 ± 0.72
21,ELSEAEVRQHREARPALLTSRLRFIPK (listed as Homo sapiens) [Pep-RIA-11],15.22 ± 0.23
22,ARPALLTSRLR (listed as Homo sapiens) [Pep-RIA-112],15.96 ± 1.24
23,VRQHREARPALLTSRLRFIPKPDGLR (listed as Homo sapiens) [Pep-RIA-35],13.22 ± 0.34
24,EARPALLTSRLRFIPKPDGLRP (listed as Homo sapiens) [Pep-RIA-69],13.72 ± 0.68
25,VRQHREARPALLTSRLRFIPKPDG (listed as Homo sapiens) [Pep-RIA-33],15.04 ± 0.68
26,LTSRLR (listed as Homo sapiens) [Pep-RIA-156],12.21 ± 0.24
27,SRLRFIP (listed as Homo sapiens) [Pep-RIA-165],5.75 ± 0.41
28,AEVRQHREARPALLTSRLRFIPKPD (listed as Homo sapiens) [Pep-RIA-52],15.49 ± 0.29

row,Substance,"cellular uptake, MFI (Mean Fluorescence Intensity)"
1,LRFIP (listed as Homo sapiens) [Pep-RIA-174],5.66 ± 0.33
2,SRLRFIPK (listed as Homo sapiens) [Pep-RIA-98],14.04 ± 1.55
3,RPALLTSRLRF (listed as Homo sapiens) [Pep-RIA-122],23.8 ± 1.54
4,LLTSRLRFI (listed as Homo sapiens) [Pep-RIA-147],14.93 ± 1.55
5,TSRLRF (listed as Homo sapiens) [Pep-RIA-161],14.41 ± 0.81
6,LRELSEAEVRQHREARPALLTSRLRFIPK (listed as Homo sapiens) [Pep-RIA-13],15.37 ± 1.34
7,RFIPK (listed as Homo sapiens) [Pep-RIA-101],12.35 ± 0.28
8,VRQHREARPALLTSRLRFIPKPDGLRP (listed as Homo sapiens) [Pep-RIA-46],15.35 ± 0.92
9,EARPALLTSRLR (listed as Homo sapiens) [Pep-RIA-81],14.63 ± 0.22
10,LTS (listed as Homo sapiens) [Pep-RIA-158],9.91 ± 1.44
11,PALLTSRLRFI (listed as Homo sapiens) [Pep-RIA-131],13.66 ± 0.87
12,LSEAEVRQHREARPALLTSRLRFIPK (listed as Homo sapiens) [Pep-RIA-10],14.64 ± 0.76
13,LLTSRLRFIP (listed as Homo sapiens) [Pep-RIA-146],17.43 ± 0.49
14,EARPALLTSRLRFIPKPDG (listed as Homo sapiens) [Pep-RIA-66],13.46 ± 0.19
15,ALLTSR (listed as Homo sapiens) [Pep-RIA-142],13.23 ± 0.57
16,AEVRQHREARPALLTSRLRFIPKPDGL (listed as Homo sapiens) [Pep-RIA-54],13.71 ± 0.11
17,EAR (listed as Homo sapiens) [Pep-RIA-90],9.77 ± 0.97
18,ALLT (listed as Homo sapiens) [Pep-RIA-144],14.54 ± 0.21
19,SEAEVRQHREARPALLTSRLRFIPK (listed as Homo sapiens) [Pep-RIA-9],12.7 ± 0.25
20,EVRQHREARPALLTSRLRFIPKPDGLRP (listed as Homo sapiens) [Pep-RIA-45],14.23 ± 1.65
21,EARPALLTSRLRFIPKPDGLRPI (listed as Homo sapiens) [Pep-RIA-70],16.32 ± 0.44
22,EARPALLTSRLRFIPKPDGLR (listed as Homo sapiens) [Pep-RIA-68],14.94 ± 1.88
23,RELSEAEVRQHREARPALLTSRLRFIPK (listed as Homo sapiens) [Pep-RIA-12],12.93 ± 0.18
24,QHREARPALLTSRLRFIPKPDGLR (listed as Homo sapiens) [Pep-RIA-37],16.73 ± 0.28
25,RPALLTSRLRFIP (listed as Homo sapiens) [Pep-RIA-121],20.72 ± 0.33
26,RQHREARPALLTSRLRFIPKPDGLRPI (listed as Homo sapiens) [Pep-RIA-60],15.93 ± 1.84
27,EVRQHREARPALLTSRLRFIPKPD (listed as Homo sapiens) [Pep-RIA-41],13.58 ± 2.78
